Data on one compound can be found in PMC9430628 (Microbiology Spectrum, 2022).

Test [1] deals with rNA (N-acyl-L-amino acid amidohydrolase NA). Put plainly: HPLC of OTalpha formed, Michaelis-Menten nonlinear fit. The test is classed as biochemical, Stenotrophomonas sp. CW117. The note with it: PBS pH 7.2, 42 °C, 6 h; OTA 15-65 μg/L.
The subject of test [2] is T1, rADH3 (amidohydrolase ADH3).
T1 construct: gene H7691_12935
The settings on record: conditions not given here (as in the authors' earlier paper); cited from earlier work.

On to `C[C@@H]1Cc2c(Cl)cc(C(=O)N[C@@H](Cc3ccccc3)C(=O)O)c(O)c2C(=O)O1` [Ochratoxin A], for which the Km in test [1] was 3.8 µM; in test [2], 0.039 µM.
